Results from PMC8896685 (PLoS ONE, 2022).
Numbered stars: 1 amine (or outer) side, 2 acyl side, 3 side chain; on linkers, the order of the positions; unused ones are H or OH. Square brackets hold non-standard residues; d marks the D form. Side chains are listed from the residue outwards. Peptide text beside a SMILES is read from it. * marks the point of attachment. C18 diacid = O=C(O)CCCCCCCCCCCCCCCCC(=O)*; γGlu = O=C(O)[C@H](CCC(=O)[*:2])N[*:1]; AEEA = NCCOCCOCC(=O)O; Aib = CC(C)(N)C(=O)O

Key:
Assay in all cases: Receptor potency, CRE-luciferase functional assay in BHK cells
Format in all cases: cell-based
[1] = molecular target: T1, Human GCGR (Homo sapiens, UniProt P47871); settings: Human receptors, whole BHK cells, 3 h 37°C, value (95% CI)
T1 construct: a plasmid encoding either the glucagon receptor or the GLP-1 receptor from the relevant species; expressed in transfected cells
T1 sequence (P47871 26-477): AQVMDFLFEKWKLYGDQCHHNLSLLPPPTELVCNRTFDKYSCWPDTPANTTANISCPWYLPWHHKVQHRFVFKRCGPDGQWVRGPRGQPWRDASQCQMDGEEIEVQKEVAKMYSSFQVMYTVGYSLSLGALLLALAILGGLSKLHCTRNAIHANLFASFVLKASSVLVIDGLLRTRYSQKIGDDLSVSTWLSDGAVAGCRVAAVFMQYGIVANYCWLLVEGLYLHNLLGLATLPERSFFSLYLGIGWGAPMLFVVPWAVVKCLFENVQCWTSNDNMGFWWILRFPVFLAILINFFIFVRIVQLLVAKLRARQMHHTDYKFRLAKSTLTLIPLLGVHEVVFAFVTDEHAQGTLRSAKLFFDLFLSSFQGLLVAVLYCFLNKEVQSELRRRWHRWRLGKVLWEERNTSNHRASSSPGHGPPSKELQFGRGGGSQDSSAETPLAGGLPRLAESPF

[2] = molecular target: Human GLP-1R (Homo sapiens, UniProt P43220); settings: Human receptors, whole BHK cells, 100% species-specific plasma, 3 h 37°C, value (95% CI)
Chain of Human GLP-1R (P43220 24-463): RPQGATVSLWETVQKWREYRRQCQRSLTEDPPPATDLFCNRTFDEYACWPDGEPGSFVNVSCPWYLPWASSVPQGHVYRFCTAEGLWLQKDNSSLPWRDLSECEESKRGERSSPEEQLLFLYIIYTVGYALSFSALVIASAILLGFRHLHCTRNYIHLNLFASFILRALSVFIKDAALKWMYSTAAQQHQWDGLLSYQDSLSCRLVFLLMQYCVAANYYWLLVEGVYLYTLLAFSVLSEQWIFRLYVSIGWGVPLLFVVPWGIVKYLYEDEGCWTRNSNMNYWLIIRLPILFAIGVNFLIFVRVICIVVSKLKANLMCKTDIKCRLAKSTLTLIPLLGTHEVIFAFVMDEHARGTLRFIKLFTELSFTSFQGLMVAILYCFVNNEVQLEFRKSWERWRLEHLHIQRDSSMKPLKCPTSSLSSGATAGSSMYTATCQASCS

[3] = molecular target: T2, Rat GLP-1R (Rattus norvegicus, UniProt P32301); settings: Rat receptors, whole BHK cells, 0% plasma, 3 h 37°C, value (95% CI)
T2 construct: a plasmid encoding either the glucagon receptor or the GLP-1 receptor from the relevant species; expressed in transfected cells
T2 sequence (P32301 22-463): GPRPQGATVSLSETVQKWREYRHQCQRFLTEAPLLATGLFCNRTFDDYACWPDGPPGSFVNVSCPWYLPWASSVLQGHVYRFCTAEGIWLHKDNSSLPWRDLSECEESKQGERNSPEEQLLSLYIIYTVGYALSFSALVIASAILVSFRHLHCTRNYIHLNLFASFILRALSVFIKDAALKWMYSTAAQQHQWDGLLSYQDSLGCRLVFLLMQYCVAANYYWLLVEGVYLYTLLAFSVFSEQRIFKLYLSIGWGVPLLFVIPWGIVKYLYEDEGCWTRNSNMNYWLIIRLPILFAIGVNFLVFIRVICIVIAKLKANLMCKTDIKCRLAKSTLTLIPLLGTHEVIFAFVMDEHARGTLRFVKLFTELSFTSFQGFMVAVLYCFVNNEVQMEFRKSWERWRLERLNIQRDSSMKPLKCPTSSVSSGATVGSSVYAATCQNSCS

| SMILES | EC50 ([1]; GCGR EC50, pM (95% CI) 0% plasma, 0% plasma) [pM] | EC50 ([1]; GCGR EC50, pM (95% CI) 100% plasma, 100% species-specific plasma) [pM] | EC50 [2] [nM] | EC50 [3] [nM] |
| --- | --- | --- | --- | --- |
| CC(C)C[C@H](NC(=O)[C@H](Cc1ccc(O)cc1)NC(=O)[C@H](CCCCN)NC(=O)[C@H](CO)NC(=O)[C@H](CC(C)C)NC(=O)[C@H](CC(=O)O)NC(=O)[C@H](CO)NC(=O)[C@@H](NC(=O)[C@H](Cc1ccccc1)NC(=O)[C@@H](NC(=O)CNC(=O)[C@H](CCC(N)=O)NC(=O)C(C)(C)NC(=O)[C@@H](N)Cc1c[nH]cn1)[C@@H](C)O)[C@@H](C)O)C(=O)N[C@@H](CCC(=O)O)C(=O)N[C@@H](CO)C(=O)N[C@@H](CCCCN)C(=O)N[C@@H](CCCNC(=N)N)C(=O)N[C@@H](C)C(=O)N[C@@H](CCCNC(=N)N)C(=O)N[C@@H](CCC(=O)O)C(=O)N[C@@H](Cc1ccccc1)C(=O)N[C@H](C(=O)N[C@@H](CCC(N)=O)C(=O)N[C@@H](Cc1c[nH]c2ccccc12)C(=O)N[C@@H](CC(C)C)C(=O)N[C@@H](CC(C)C)C(=O)N[C@@H](CCCCNC(=O)CC[C@H](NC(=O)CC[C@H](NC(=O)[C@H](CO)NC(=O)[C@H](CCC(=O)O)NC(=O)[C@H](CO)NC(=O)CC[C@H](NC(=O)CC[C@H](NC(=O)CCCCCCCCCCCCCCCCC(=O)O)C(=O)O)C(=O)O)C(=O)O)C(=O)O)C(=O)N[C@H](C(N)=O)[C@@H](C)O)C(C)C [NN1177] (H-H[Aib]QGTFTSDLSKYLESKRAREFVQWLLK([γGlu-γGlu-Ser-Glu-Ser-γGlu-γGlu-C18 diacid])T-NH2) | 1.83 | 312 | 0.149 |  |
| CC(C)C[C@H](NC(=O)[C@H](CC(C)C)NC(=O)[C@H](Cc1c[nH]c2ccccc12)NC(=O)[C@H](CCC(N)=O)NC(=O)[C@@H](NC(=O)[C@H](Cc1ccccc1)NC(=O)[C@H](CCC(=O)O)NC(=O)[C@H](CCCNC(=N)N)NC(=O)[C@H](C)NC(=O)[C@H](C)NC(=O)[C@H](CCCNC(=N)N)NC(=O)[C@H](CO)NC(=O)[C@H](CC(=O)O)NC(=O)[C@H](CC(C)C)NC(=O)[C@H](Cc1ccc(O)cc1)NC(=O)[C@H](CCCCN)NC(=O)[C@H](CO)NC(=O)[C@H](CC(C)C)NC(=O)[C@H](CC(=O)O)NC(=O)[C@H](CO)NC(=O)[C@@H](NC(=O)[C@H](Cc1ccccc1)NC(=O)[C@@H](NC(=O)CNC(=O)[C@H](CCC(=O)O)NC(=O)C(C)(C)NC(=O)[C@@H](N)Cc1c[nH]cn1)[C@@H](C)O)[C@@H](C)O)C(C)C)C(=O)N[C@@H](CC(N)=O)C(=O)N[C@@H](CCCCNC(=O)CC[C@H](NC(=O)CC[C@H](NC(=O)COCCOCCNC(=O)COCCOCCNC(=O)CC[C@H](NC(=O)CCCCCCCCCCCCCCCCC(=O)O)C(=O)O)C(=O)O)C(=O)O)C(N)=O [GLP-1 reference] (H-H[Aib]EGTFTSDLSKYLDSRAAREFVQWLLNK([γGlu-γGlu-AEEA-AEEA-γGlu-C18 diacid])-NH2) |  |  |  | 0.00299 |
